# Measurements: patent publication US10813888B2, “Formulations of cysteamine and cysteamine derivatives” (RECORDATI INDUSTRIA CHIMICA E FARMACEUTICA SPA, priority 2016, dated 2020)
# Assay: In vitro dissolution test, USP Apparatus II at pH 1.2 for 1 hour
# Assay type: physicochemical
# Procedure: The in vitro dissolution tests were conducted in an USP Apparatus II at pH 1.2 for 1 hour. The cysteamine bitartrate raw material was completely dissolved in 10 minutes.
structure (smiles),measurement,value
"NCCS.O=C(O)C(O)C(O)C(=O)O (stereo not shown) [cysteamine bitartrate raw material, cysteamine bitartrate]",time to complete dissolution,10 min
